Measurements reported in patent US11613587B2, “Combination therapy of T cell activating bispecific antigen binding molecules and PD-1 axis binding antagonists” (Hoffmann-La Roche Inc., priority 2014, dated 2023).

Tests used:
[1] = test system: SKOV3 cells; assay: Killing assay with tumor samples and CFSE-labelled Skov3 cells; type: cell-based
Description: To determine the FolR1-TCB induced tumor cell killing, 3×10^4 CFSE-labelled Skov3 cells were cocultured with tumor samples in the presence or absence of FolR1-TCB at a concentration of 2 nM for 24 h in 96-well flat bottom cell culture plates. The E:T ratio (E: effector CD45+CD3+ cells; T: target FolR1^+ cells from tumor and added Skov3 cells) was adjusted to 1:1 in each well and the cell number of the added tumor samples was calculated for each sample according to prior characterization by flow cytometry. Cell death of Skov3 cells was determined by flow cytometry by measuring activated caspase 3 and the live/dead marker Live/Dead-near-IR. The assay was performed in triplicates. The FolR1-TCB mediated killing was calculated according to the following equation: % of specific killing=100−[(% of Skov3 live cells in FolR1-TCB treated sample/% of Skov3 live cells in untreated sample)×100].
To compare the FolR1-TCB-induced killing capacity of T-cells between tumor samples, and to exclude additional factors suppressing T-cell functionality, such as expression of PD-L1 on the tumor cells, we exogenously added CFSE-labeled FolR1^+ Skov3 cells to the tumor digests and adjusted the E:T ratio to 1:1, essentially as described above. We then measured the FolR1-TCB-induced killing of CFSE-labeled Skov3 cells, which allowed us to also include FolR1^− tumor samples into the analysis. […]

[2] = test system: T cells in tumor digests; assay: Polyclonal stimulation with anti-CD3/CD28 antibodies and PD-1 blockade; type: cell-based, human; conditions: 10 μg/ml, 24 hrs
[3] = test system: T cells in FolR1+ tumor digests or malignant effusions; assay: FolR1-TCB with PD-1 blockade in tumor digests or malignant effusions (cytokine secretion); type: cell-based, human; conditions: combined with FolR1-TCB
Description: FIG. 38A-D: FolR1^+ tumor digests or malignant effusions were cultured for 24 h with FolR1-TCB in the presence or absence of a PD-1 blocking antibody. […] The increase in cytokine secretion upon combined FolR1-TCB and anti-PD-1 treatment compared with FolR1-TCB alone was determined in PD-1^hi scarce and abundant tumors. FIG. 38E: Tumor digests or malignant effusions were co-cultured with exogenously added fluorescently labeled Skov3 cells at an E:T ratio of 1:1 for 24 h in the presence or absence of a PD-1 blocking antibody and FolR1-TCB. The increase in specific killing by the anti-PD-1 antibody was compared in PD-1^hi scarce and abundant tumors. p-values were calculated using the unpaired Mann-Whitney test.
As the level of PD-1 expression on TILs correlates with the efficacy of FolR1-TCB, we analyzed whether blockade of the PD-1/PD-L1 axis in combination with FolR1-TCB treatment might be able to restore T-cell function.

[4] = test system: CD4+ and CD8+ T cells in whole blood; assay: T cell activation in whole blood; type: cell-based, human; conditions: 24 h after addition
Text: FIGS. 9A-D depict graphs summarizing activation marker upregulation in whole blood.
DP47 TCB was included as negative control.

[5] = molecular target: T1, FolR1 on Hela, Skov3, OVCAR5, HT29, MKN45 tumor cells (Homo sapiens, UniProt P15328); assay: Binding to tumor cells with different FolR1 expression levels (flow cytometry)
T1 construct: endogenous in cells; host or cells: tumour cell line panel (HeLa, SKOV3, OVCAR5, HT-29; MKN-45 as FolR1-negative line)
Text: FIGS. 6A-E depict graphs summarizing binding of FolR1 IgGs to cells with different FolR1 expression levels. […] DP47 IgG was included as isotype control and MKN-45 were included as FolR1 negative cell line.
The FolR1 TCBs were used to determine T cell mediated killing of tumor cells expressing FoLR1. A panel of potential target cell lines was used to determine FoLR1 binding sites by Qifikit analysis.
The used panel of tumor cells contains FolR1 high, intermediate and low expressing tumor cells and a FolR1 negative cell line.
The amount of bound construct is proportional to the FolR1 expression level and there is still good binding of the constructs to the FolR1 low cell line HT-29 detectable. […] DP47 TCB is an untargeted TCB and was prepared as described in WO2014/131712.

[6] = test system: SKOV3 cells; assay: T cell mediated killing (LDH release); type: cell-based, human; conditions: SKOV3 and HT-29 cells, used concentrations
Description: FIGS. 7A-L depict graphs summarizing T cell mediated killing of HT-29 and SKOV3 cells. FolR1 TCBs were used to test T cell mediated killing of HT-29 and SKOV3 tumor cells and upregulation of activation marker on T cells upon killing. […] DP47 TCB was included as negative control. After 48 h incubation upregulation of the activation marker CD25 and CD69 on CD8 T cells and CD4 T cells upon killing of SKOV3 (FIGS. 7E-H) or HT-29 (FIG. 7I-L) tumor cells was assessed by flow cytometry.
Overall killing of SKOV3 cells was higher compared to HT-29 which reflects the higher expression levels of FolR1 on SKOV3 cells (FIGS. 7A-D). In line with this, a strong upregulation of the activation marker CD25 and CD69 on CD4^+ T cells and CD8^+ T cells was detected. Activation of T cells was very similar in the presence of SKOV3 cells and HT-29 cells.

[7] = test system: T cells in FolR1 positive tumor digests or malignant effusions; assay: Ex vivo treatment of tumor samples with FolR1-TCB (T cell activation and effector function); type: cell-based, human; conditions: 24 h
Description: FolR1 positive tumor digests or malignant effusions were thawed, washed and plated in 96-well flat bottom cell culture plates (BD Falcon) with a density of […] cells/200 μl/well in complete medium (DMEM+Sodium Pyruvate (1 mM)+MEM non essential AA (1×)+L-Glutamin (2 mM)+Penicillin/Streptomycin ([…])+2-Mercaptoethanol (50 nM)+Ciproxin (1 mg/ml)+10% human Serum). The samples were cultured in the presence or absence of FolR1-TCB or DP47 TCB at a concentration of 2 nM for 24 h. Activation of CD8^+ and CD4^+ T cells (CD45^+CD3^+) upon FolR1-TCB treatment was determined by multicolor flow cytometry by measuring the expression of the cell surface markers CD25, CD69, CD137, ICOS, PD-1 and Tim-3. Furthermore the expression of granzyme B and IFN-γ was determined by intracellular staining. […]
We analyzed whether the expression of inhibitory receptors could be correlated with a diminished T-cell functionality upon FolR1-TCB treatment.

[8] = test system: PBMCs co-cultured with Skov3; assay: Activation of T-cells from healthy donors by FolR1-TCB (PBMC co-cultured with Skov3); type: cell-based, human; conditions: 0.6 pM to 2 nM, 24 h
Description: FIGS. 40A-C show activation of CD8^+ T-cells upon exposure to increasing concentrations of FolR1-TCB. PBMCs were co-cultured with Skov3 cells for 24 h in the presence or absence of FolR1-TCB or the unspecific control DP-47-TCB. […] Shaded histogram: isotype control; open histogram: anti-FolR1-antibody. FIG. 40B: The expression of the activation markers CD25, CD137, and ICOS on CD8^+ T-cells was determined by flow cytometry. FIG. 40C: IFN-v.
To assess the effect of FolR1-TCB on T-cell activation peripheral blood mononuclear cells (PBMCs) from healthy donors were co-cultured with the FolR1^+ ovarian cancer cell line Skov3 (FIG. 40A). […] In addition, T-cells secreted IL-2, IFN-γ, and TNF.

[9] = test system: T cells in EpCAM positive tumor digests or malignant effusions; assay: Ex vivo treatment of tumor samples with catumaxomab; type: cell-based, human; conditions: 4 NSCLC tumor digests, 10 ng/ml, 24 h
Description: The trifunctional TCB catumaxomab (Removab®) was obtained from Fresenius. The experimental conditions were similar as indicated above for FolR1-TCB. Briefly, EpCAM positive tumor digests or malignant effusions were cultured in the presence or absence of catumaxomab at a concentration of 10 ng/ml for 24 h. Analysis of CD8^+ and CD4^+ positive T cells (CD45+CD3+) was performed as described above.
To determine to which extent catumaxomab induces T cell activation and to confirm the findings described above using a second, independent T cell bispecific molecule, 4 tumor digests from patients with NSCLC were exposed to catumaxomab, a trifunctional bispecific antibody recognizing CD3 on T cells and EpCAM on tumor cells. Then, T cells were characterized by flow cytometry for expression of activation markers and T cell effector functions (FIG. 17A-D). […] Accordingly, the baseline expression of inhibitory receptors differed between the patients (FIG. 17E-H).

T1 sequence (P15328 25-257): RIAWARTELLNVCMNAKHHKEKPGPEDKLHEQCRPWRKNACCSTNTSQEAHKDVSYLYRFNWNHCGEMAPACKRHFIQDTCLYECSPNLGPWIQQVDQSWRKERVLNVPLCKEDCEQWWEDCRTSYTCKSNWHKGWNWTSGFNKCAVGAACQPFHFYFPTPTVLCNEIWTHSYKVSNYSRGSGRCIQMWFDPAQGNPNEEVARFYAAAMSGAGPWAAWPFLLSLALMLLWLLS

For nivolumab: PD-1 blocking antibody, the “cytotoxic tumor cell killing upon additional PD-1 blockade” value ([1]; combined with FolR1-TCB, PD-1hi scarce and abundant tumors) was “could neither be improved”, the “restoration of T cell effector function (IL-2, IFN-γ, TNF-α)” value [2] was “only in some patients” and the “secretion of IFN-γ, TNF, IL-2 and perforin upon PD-1 blockade” value ([3]; PD-1hi abundant tumors) was “failed to elicit any response”. For the same substance, the “secretion of IFN-γ, TNF, IL-2 and perforin upon PD-1 blockade” value ([3]; PD-1hi scarce tumors) was “could be increased only in some of the PD-hi scarce tumors”.
With “Mov19 TCB: reference FolR1/CD3 T-cell bispecific with Mov19 binder [reference compound]” the “upregulation of CD25 and CD69 on CD4+ and CD8+ T cells in whole blood” value [4] was “No activation of T cells”.
For “DP47 TCB: untargeted TCB, negative control, prepared as described in WO2014/131712”, the “binding to panel of tumor cell lines” value [5] was “no binding”, the “induction of tumor cell killing” value [6] was “does not induce any killing” and the T cell activation [7] was “did not induce any T cell activation”. The tumor cell killing ([1]; E:T 1:1, 24 h) was “did not induce any tumor cell killing” and the “T-cell activation (CD25, CD137, ICOS)” value [8] was “did not induce any T-cell activation”.
For catumaxomab, the “catumaxomab induced T cell activation” value [9] was “striking heterogeneity”.
